Experiments:
HBV = test: Anti-HBV activity in HepG2.117 cell line (intracellular HBV DNA, real-time PCR); assay type: cell-based, hepatitis B virus; details: HepG2.117 cells, HBV replication induced, 3 days of treatment, intracellular HBV DNA by real-time PCR
Outline: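 HepG2.117 cells (Tet-off, doxycycline-free HBV replication) induced for HBV replication, then exposed to serially diluted compound for 3 days. Intracellular HBV DNA quantified by real-time PCR with HBV-specific primers and probe.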

HepG2 or HepG2.117 cells = test: Cytotoxicity, ATPlite Luminescence Assay; assay type: cell-based, human; details: 3-days incubation unless marked with *, ATPlite viability
Outline: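 HepG2/HepG2.117; compound exposure 3–4 d; viability readout = ATPlite luminescence.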

[1] = Human liver microsome stability; assay type: in vitro ADME; details: 1 μM compound, NADPH 1 mM, pH 7.4, 37° C., 0-60 min; for HLM Metabolism t1/2: pooled human liver microsomes 0.5 mg/mL; for half-life at 1 μM: human, pooled human liver microsomes, pH 7.4, pooled human liver microsomes 0.5 mg/mL, read-out: HLM Metabolism t1/2
Outline: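 Pooled human liver microsomes (0.5 mg/mL) incubated at 37 °C with 1 μM compound in 0.1 M phosphate pH 7.4, 1 mM MgCl2; 1 mM NADPH starts reaction. Samples quenched in acetonitrile at 0–60 min, analysed by LC-MS against internal standard; half-life from slope of ln peak-area ratio versus time.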

Compound | EC50 (HBV) | CC50 (HepG2 or HepG2.117 cells) | HLM Metabolism t1/2 [1] | half-life at 1 μM [1] | EC50 (HBV; Hepatitis B virus, HepG2.117, 72 h)
CNC(=O)[C@@H]1CN(C(C)c2ccc(-c3c(C)noc3C)nc2)C(=O)c2c3c(nn21)C[C@@H](C)N(C(=O)c1ccc(Cl)c(Cl)c1)C3 (single isomer, unassigned) [Compound 35B, (3R,7S)-2-(3,4-dichlorobenzoyl)-9-((S*)-1-(6-(3,5-dimethylisoxazol-4-yl)pyridin-3-yl)ethyl)-N,3-dimethyl-10-oxo-1,2,3,4,7,8,9,10-octahydropyrido[4′,3′:3,4]pyrazolo[1,5-a]pyrazine-7-carboxamide] | 0.082 µM | > 50 µM | 2.17 h | – | –
CNC(=O)[C@@H]1CN(C(C)c2ccc(-n3cncn3)cc2)C(=O)c2c3c(nn21)C[C@@H](C)N(C(=O)c1ccc(Cl)c(Cl)c1)C3 (single isomer, unassigned) [Compound 2B, (3R,7S)-9-((S*)-1-(4-(1H-1,2,4-triazol-1-yl)phenyl)ethyl)-2-(3,4-dichlorobenzoyl)-N,3-dimethyl-10-oxo-1,2,3,4,7,8,9,10-octahydropyrido[4′,3′:3,4]pyrazolo[1,5-a]pyrazine-7-carboxamide] | 0.017 µM | > 50 µM | >3 h | – | –
CC(c1ccc(OC(F)F)cc1)N1C[C@@H](C(=O)NC2CC2)n2nc3c(c2C1=O)CN(C(=O)c1ccc(Cl)c(C#N)c1)[C@H](C)C3 (single isomer, unassigned) [Compound 26B, (3R,7S)-2-(4-chloro-3-cyanobenzoyl)-N-cyclopropyl-9-((S*)-1-(4-(difluoromethoxy)phenyl)ethyl)-3-methyl-10-oxo-1,2,3,4,7,8,9,10-octahydropyrido[4′,3′:3,4]pyrazolo[1,5-a]pyrazine-7-carboxamide] | 0.09 µM | > 50 µM | 1.12 h | – | –
CNC(=O)[C@@H]1CN(C(C)c2ccc(N3CCCC3=O)nc2)C(=O)c2c3c(nn21)C[C@@H](C)N(C(=O)c1ccc(Cl)c(Cl)c1)C3 (relative stereo) [Compound 34B, (3R,7S)-2-(3,4-dichlorobenzoyl)-N,3-dimethyl-O-oxo-9-((S*)-1-(6-(2-oxopyrrolidin-1-yl)pyridin-3-yl)ethyl)-1,2,3,4,7,8,9,10-octahydropyrido[4′,3′:3,4]pyrazolo[1,5-a]pyrazine-7-carboxamide] | 0.049 µM | > 50 µM | >3 h | – | –
CNC(=O)[C@@H]1CN(C(C)c2ccc(-n3nnc(C)n3)cc2)C(=O)c2c3c(nn21)C[C@@H](C)N(C(=O)c1ccc(Cl)c(Cl)c1)C3 (single isomer, unassigned) [Compound 30B, (3R,7S)-2-(3,4-dichlorobenzoyl)-N,3-dimethyl-9-((S*)-1-(4-(5-methyl-2H-tetrazol-2-yl)phenyl)ethyl)-10-oxo-1,2,3,4,7,8,9,10-octahydropyrido[4′,3′:3,4]pyrazolo[1,5-a]pyrazine-7-carboxamide] | 0.017 µM | 17.2 µM | 1.52 h | – | –
CNC(=O)[C@@H]1CN(C(C)c2cnc(C(F)(F)F)nc2)C(=O)c2c3c(nn21)C[C@@H](C)N(C(=O)c1ccc(Cl)c(C(F)(F)F)c1)C3 (single isomer, unassigned) [Compound 43B, (3R,7S)-2-(4-chloro-3-(trifluoromethyl)benzoyl)-N,3-dimethyl-10-oxo-9-((S*)-1-(2-(trifluoromethyl)pyrimidin-5-yl)ethyl)-1,2,3,4,7,8,9,10-octahydropyrido[4′,3′:3,4]pyrazolo[1,5-a]pyrazine-7-carboxamide] | 0.057 µM | > 50 µM | >3 h | – | –
CNC(=O)[C@@H]1CN(C(C)c2ccc(OC(F)F)nc2)C(=O)c2c3c(nn21)C[C@@H](C)N(C(=O)c1ccc(Cl)c(Cl)c1)C3 (single isomer, unassigned) [Compound 11A, (3R,7S)-2-(3,4-Dichlorobenzoyl)-9-((R*)-1-(6-(difluoromethoxy)pyridin-3-yl)ethyl)-N,3-dimethyl-10-oxo-1,2,3,4,7,8,9,10-octahydropyrido[4′,3′:3,4]pyrazolo[1,5-a]pyrazine-7-carboxamide] | 0.12 µM | > 50 µM | – | > 3 h | –
CNC(=O)[C@@H]1CN(C(C)c2ccc(OC(F)F)c(F)c2)C(=O)c2c3c(nn21)C[C@@H](C)N(C(=O)c1ccc(Cl)c(Cl)c1)C3 (single isomer, unassigned) [Compound 24B, (3R,7S)-2-(3,4-dichlorobenzoyl)-9-((S*)-1-(4-(difluoromethoxy)-3-fluorophenyl)ethyl)-N,3-dimethyl-10-oxo-1,2,3,4,7,8,9,10-octahydropyrido[4′,3′:3,4]pyrazolo[1,5-a]pyrazine-7-carboxamide] | 0.013 µM | 25.5 µM | >3 h | – | –
CNC(=O)[C@@H]1CN(C(C)c2cc(F)ccn2)C(=O)c2c3c(nn21)C[C@@H](C)N(C(=O)c1ccc(Cl)c(Cl)c1)C3 (single isomer, unassigned) [Compound 42B, (3R,7S)-2-(3,4-dichlorobenzoyl)-9-((S*)-1-(4-fluoropyridin-2-yl)ethyl)-N,3-dimethyl-10-oxo-1,2,3,4,7,8,9,10-octahydropyrido[4′,3′:3,4]pyrazolo[1,5-a]pyrazine-7-carboxamide] | 0.02 µM | > 50 µM | >3 h | – | –
CC(c1ccc(OC(F)F)nc1)N1C[C@@H](C(N)=O)n2nc3c(c2C1=O)CN(C(=O)c1ccc(Cl)c(Cl)c1)[C@H](C)C3 (single isomer, unassigned) [Compound 12B, (3R,7S)-2-(3,4-dichlorobenzoyl)-9-((S*)-1-(6-(difluoromethoxy)pyridin-3-yl)ethyl)-3-methyl-10-oxo-1,2,3,4,7,8,9,10-octahydropyrido[4′,3′:3,4]pyrazolo[1,5-a]pyrazine-7-carboxamide] | 0.027 µM | 27.4 µM | >3 h | – | –
CNC(=O)[C@@H]1CN(C(C)c2ccc(-n3cncn3)cn2)C(=O)c2c3c(nn21)C[C@@H](C)N(C(=O)c1ccc(Cl)c(Cl)c1)C3 (single isomer, unassigned) [Compound 40B, (3R,7S)-9-((S*)-1-(5-(1H-1,2,4-triazol-1-yl)pyridin-2-yl)ethyl)-2-(3,4-dichlorobenzoyl)-N,3-dimethyl-10-oxo-1,2,3,4,7,8,9,10-octahydropyrido[4′,3′:3,4]pyrazolo[1,5-a]pyrazine-7-carboxamide] | 0.097 µM | > 50 µM | >3 h | – | –
CNC(=O)[C@@H]1CN(C(C)c2cccc(Cl)n2)C(=O)c2c3c(nn21)C[C@@H](C)N(C(=O)c1ccc(Cl)c(Cl)c1)C3 (single isomer, unassigned) [Compound 38B, (3R,7S)-9-((S*)-1-(6-chloropyridin-2-yl)ethyl)-2-(3,4-dichlorobenzoyl)-N,3-dimethyl-10-oxo-1,2,3,4,7,8,9,10-octahydropyrido[4′,3′:3,4]pyrazolo[1,5-a]pyrazine-7-carboxamide] | 0.04 µM | > 50 µM | 2.4 h | – | –
CNC(=O)[C@@H]1CN(C(C)c2ccc(-n3nnc(C)n3)cc2)C(=O)c2c3c(nn21)C[C@@H](C)N(C(=O)c1ccc(Cl)c(Cl)c1)C3 (single isomer, unassigned) [Compound 30A, (3R,7S)-2-(3,4-Dichlorobenzoyl)-N,3-dimethyl-9-((R*)-1-(4-(5-methyl-2H-tetrazol-2-yl)phenyl)ethyl)-10-oxo-1,2,3,4,7,8,9,10-octahydropyrido[4′,3′:3,4]pyrazolo[1,5-a]pyrazine-7-carboxamide] | – | > 50 µM | – | > 3 h | 0.016 µM
CNC(=O)[C@@H]1CN(C(C)c2ccc(S(=O)(=O)C3CC3)cc2)C(=O)c2c3c(nn21)C[C@@H](C)N(C(=O)c1ccc(Cl)c(C(F)(F)F)c1)C3 (single isomer, unassigned) [Compound 20B, (3R,7S)-2-(4-Chloro-3-(trifluoromethyl)benzoyl)-9-((S*)-1-(4-(cyclopropylsulfonyl)phenyl)ethyl)-N,3-dimethyl-10-oxo-1,2,3,4,7,8,9,10-octahydropyrido[4′,3′:3,4]pyrazolo[1,5-a]pyrazine-7-carboxamide] | 0.022 µM | > 50 µM | >3 h | – | –
CNC(=O)[C@@H]1CN(C(C)c2ccc(C(F)F)nc2)C(=O)c2c3c(nn21)C[C@@H](C)N(C(=O)c1ccc(Cl)c(Cl)c1)C3 (single isomer, unassigned) [Compound 36B, (3R,7S)-2-(3,4-dichlorobenzoyl)-9-((S*)-1-(6-(difluoromethyl)pyridin-3-yl)ethyl)-N,3-dimethyl-10-oxo-1,2,3,4,7,8,9,10-octahydropyrido[4′,3′:3,4]pyrazolo[1,5-a]pyrazine-7-carboxamide] | 0.05 µM | > 50 µM | >3 h | – | –
CNC(=O)[C@@H]1CN(C(C)c2ccc(C3CC3)nc2)C(=O)c2c3c(nn21)C[C@@H](C)N(C(=O)c1ccc(Cl)c(Cl)c1)C3 (single isomer, unassigned) [Compound 32B, (3R,7S)-9-((S*)-1-(6-cyclopropylpyridin-3-yl)ethyl)-2-(3,4-dichlorobenzoyl)-N,3-dimethyl-10-oxo-1,2,3,4,7,8,9,10-octahydropyrido[4′,3′:3,4]pyrazolo[1,5-a]pyrazine-7-carboxamide] | 0.011 µM | 48.7 µM | >3 h | – | –

Reference: patent publication US20240279227A1, “FUSED HETEROCYCLIC DERIVATIVES” (Janssen Sciences Ireland Unlimited Company, priority 2021, published 2024)
